# Source: patent publication US6841559B1, “Pyridinones to treat and prevent bacterial infections” (Washington University of St. Louis, priority 1999, dated 2005)
# Legend:
# [1] = biological target: periplasmic chaperone FimC (Escherichia coli, UniProt P31697); assay: Direct binding assay on BIACORE 3000, immobilized FimC; settings: pyridinone 30 uM, 25° C., 30 μL/min, triplicate, Sensor Chip CM5
# Procedure: (§1) The affinity of the following pyridinone: [drawing 73] for periplasmic chaperones PapD and FimC were investigated using a direct binding assay on BIACORE 3000. Methods
# (§2) PapD (50 μg/ML in 10 mM NaAc pH 5.5) and FimC (50 μg/mL in 10 mM NaAc pH 5.5) were mobilized on Sensor Chi CM5 using standard thiol coupling procedure. This procedure was also employed for coupling of non-target proteins. Immobilization levels of 4000-10000 RU were obtained. Unmodified dextrane in one of the flow cells was used as reference surface.
# (§3) The pyridinone was diluted from 10 mM DMSO stock solution to a final concentration of 30 μM in running buffer (6.7 mM phosphate buffer (9.6 g Na2HPO4.2H2O, 1.7 G KH2PO4, 4.1 g NaCl, 100 mL H2O), 3.4 mM EDTA, 0.01% TWEEN, 5% DMSO, pH 7.4) so that the concentrations of DMSO and buffer substances were carefully matched. The compounds were injected (flow rate was 30 μL/min at 25° C.) and the binding of the compounds to the immobilized chaperone proteins was observed on real time. The surface was regenerated by injection of 10 mM glycin.HCl, pH 2.0 and then washed with a 1:1 mixture of DMSO and water.
# (§4) For screening of the affinity of the compounds of PapD and FimC, the pyridinone was injected (flow rate was 30 μL/min at 25° C.) at a concentration of 30 μM in triplicate. […]
# as §3, with “KH2PO2PO4,” for “KH2PO4,”, “water. […]” for “water.”
# (§5) A direct binding assay on BIACORE 3000 was employed to test the affinity of the following pyridinone: [drawing 76] for periplasmic chaperones PapD and FimC. Methods
# [2] = biological target: periplasmic chaperone PapD (Escherichia coli, UniProt P15319); assay: Direct binding assay on BIACORE 3000, immobilized PapD; settings: pyridinone 30 uM, 25° C., 30 μL/min, triplicate, Sensor Chip CM5
# Chain of periplasmic chaperone PapD (P15319 22-239): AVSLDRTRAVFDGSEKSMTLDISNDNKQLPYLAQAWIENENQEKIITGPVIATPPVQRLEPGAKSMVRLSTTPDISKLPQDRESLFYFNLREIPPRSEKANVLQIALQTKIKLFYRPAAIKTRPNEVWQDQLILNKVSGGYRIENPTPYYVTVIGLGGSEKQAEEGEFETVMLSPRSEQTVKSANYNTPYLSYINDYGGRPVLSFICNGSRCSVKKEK
# Procedure: as §1, §2, §3, §4
# as §3, with “KH2PO2PO4,” for “KH2PO4,”, “water. […]” for “water.”
# as §5
# Chain of periplasmic chaperone FimC (P31697 37-241): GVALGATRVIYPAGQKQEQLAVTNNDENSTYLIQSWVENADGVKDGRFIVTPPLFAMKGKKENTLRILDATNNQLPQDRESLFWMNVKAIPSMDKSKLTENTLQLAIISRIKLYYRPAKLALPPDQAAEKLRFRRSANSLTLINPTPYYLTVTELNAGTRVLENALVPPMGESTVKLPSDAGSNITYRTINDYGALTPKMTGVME
Compound,Response Units FimC 30 uM [1],Response Units PapD 30 uM [2]
Cc1cc(=O)n2c(c1C)SC[C@H]2C(=O)O [Me_Me_Pyr_COOH],"6,535311642 Response Units","1,676914034 Response Units"
O=C(O)[C@@H]1CSc2cc(Cc3cccc4ccccc34)cc(=O)n21 [H_Pyr_COOH],"11,69075072 Response Units","6,760176162 Response Units"
O=C(O)[C@@H]1CSc2c(-c3ccccc3)c(Cc3cccc4ccccc34)cc(=O)n21 [Ph_Pyr_COOH],"60,71350348 Response Units","46,22397585 Response Units"
Cc1cc(=O)n2c(c1-c1ccccc1)SC[C@H]2C(=O)O [Me_Ph_Pyr_COOH],"6,753367367 Response Units","3,90056354 Response Units"
